Test results published in ChEMBL document CHEMBL3885861, “Open TG-GATES”.

Species on record: Rattus norvegicus
Assay: Open TG-GATES - Regimen: Daily Repeat
Format: toxicity, organism-based, Sprague-Dawley
Set-up: regimen Daily Repeat, gender Male, age 6 weeks
Conditions: in vivo, po, route gavage; for KIDNEY_L / KIDNEY_TOTAL / KIDNEY_R: tissue Kidney; for LIVER: tissue Liver
[1] = 3 mg/kg, 72 h, dose level Middle, time 3 day
[2] = 3 mg/kg, 72 h, tissue Blood, dose level Middle, time 3 day
[3] = 3 mg/kg, 72 h, tissue Plasma, dose level Middle, time 3 day
[4] = 3 mg/kg, […], dose level Middle, time 28 day
[5] = 3 mg/kg, […], tissue Blood, dose level Middle, time 14 day
[6] = 3 mg/kg, […], tissue Blood, dose level Middle, time 28 day
[7] = 3 mg/kg, […], tissue Plasma, dose level Middle, time 14 day
[8] = 3 mg/kg, […], tissue Plasma, dose level Middle, time 28 day
[9] = 10 mg/kg, 72 h, dose level High, time 3 day
[10] = 10 mg/kg, 72 h, tissue Blood, dose level High, time 3 day
[11] = 10 mg/kg, 72 h, tissue Plasma, dose level High, time 3 day
[12] = 10 mg/kg, […], dose level High, time 14 day
[13] = 10 mg/kg, […], dose level High, time 28 day
[14] = 10 mg/kg, […], tissue Blood, dose level High, time 14 day
[15] = 10 mg/kg, […], tissue Blood, dose level High, time 28 day
[16] = 10 mg/kg, […], tissue Plasma, dose level High, time 14 day
[17] = 10 mg/kg, […], tissue Plasma, dose level High, time 28 day

SMILES: O=C(O)Cc1ccccc1Nc1c(Cl)cccc1Cl [DICLOFENAC]
- TERMINAL_BW [1]: 236.5 g
- Bas [2]: 0%
- Eos [2]: 1%
- Fbg [2]: 214.8 mg/dL
- Lym [2]: 79.8%
- MCH [2]: 21.5 pg
- Plat [2]: 125.2 x10_4/uL
- RBC [2]: 641.4 x10_4/ul
- WBC [2]: 112.9 x10_2/uL
- KIDNEY_L [1]: 1 g
- KIDNEY_TOTAL [1]: 2.1 g
- LIVER [1]: 11.2 g
- ALP [3]: 1064.8 IU/L
- ALT [3]: 39.2 IU/L
- AST [3]: 69.2 IU/L
- CRE [3]: 0.3 mg/dL
- DBIL [3]: 0.1 mg/dL
- GLC [3]: 194.8 mg/dL
- IP [3]: 7.1 mg/dL
- LDH [3]: 186 IU/L
- PL [3]: 170.8 mg/dL
- RALB [3]: 3.4 g/dL
- TBIL [3]: 0.2 mg/dL
- TC [3]: 84.2 mg/dL
- TG [3]: 122 mg/dL
- gamma-GTP [3]: 1.2 IU/L
- TERMINAL_BW (3 mg/kg, […], dose level Middle, time 14 day): 309.6 g
- TERMINAL_BW [4]: 391.3 g
- Bas [5]: 0%
- Eos [5]: 1%
- Fbg [5]: 226 mg/dL
- MCH [5]: 20.8 pg
- MCHC [5]: 35.6%
- MCV [5]: 58.4 fL
- Neu [5]: 14.2%
- Plat [5]: 116.2 x10_4/uL
- RBC [5]: 705.4 x10_4/ul
- Ret [5]: 3.5%
- WBC [5]: 117.1 x10_2/uL
- Bas [6]: 0%
- Eos [6]: 1%
- Fbg [6]: 216.2 mg/dL
- Lym [6]: 83.2%
- MCH [6]: 20 pg
- MCHC [6]: 36.1%
- MCV [6]: 55.4 fL
- Plat [6]: 110.4 x10_4/uL
- RBC [6]: 789.2 x10_4/ul
- Ret [6]: 2.2%
- WBC [6]: 97.8 x10_2/uL
- KIDNEY_L [4]: 1.4 g
- KIDNEY_R [4]: 1.4 g
- KIDNEY_TOTAL [4]: 2.8 g
- LIVER [4]: 15.1 g
- ALP [7]: 835 IU/L
- ALT [7]: 35 IU/L
- AST [7]: 70.8 IU/L
- CRE [7]: 0.4 mg/dL
- GLC [7]: 224.2 mg/dL
- IP [7]: 7.6 mg/dL
- K [7]: 3.5 meq/L
- LDH [7]: 198.8 IU/L
- PL [7]: 151.2 mg/dL
- RALB [7]: 3.3 g/dL
- TBIL [7]: 0.1 mg/dL
- TC [7]: 71.8 mg/dL
- TG [7]: 135.8 mg/dL
- gamma-GTP [7]: 0.8 IU/L
- ALP [8]: 618.6 IU/L
- AST [8]: 61 IU/L
- CRE [8]: 0.5 mg/dL
- Ca [8]: 10.3 mg/dL
- DBIL [8]: 0.086 mg/dL
- GLC [8]: 221.2 mg/dL
- IP [8]: 7.1 mg/dL
- K [8]: 3.6 meq/L
- LDH [8]: 177 IU/L
- Na [8]: 140.8 meq/L
- PL [8]: 130.2 mg/dL
- RALB [8]: 3.4 g/dL
- TBIL [8]: 0.1 mg/dL
- TC [8]: 60 mg/dL
- TP [8]: 6.2 g/dL
- gamma-GTP [8]: 0.6 IU/L
- TERMINAL_BW [9]: 234.4 g
- Bas [10]: 0%
- Eos [10]: 1%
- Fbg [10]: 231.8 mg/dL
- MCH [10]: 22 pg
- MCV [10]: 63.1 fL
- Neu [10]: 22.4%
- Plat [10]: 128.5 x10_4/uL
- RBC [10]: 591.2 x10_4/ul
- Ret [10]: 4.9%
- WBC [10]: 114.7 x10_2/uL
- KIDNEY_L [9]: 1 g
- KIDNEY_R [9]: 1 g
- KIDNEY_TOTAL [9]: 2 g
- LIVER [9]: 11 g
- ALP [11]: 912.8 IU/L
- ALT [11]: 35.6 IU/L
- AST [11]: 65.2 IU/L
- CRE [11]: 0.4 mg/dL
- DBIL [11]: 0.1 mg/dL
- GLC [11]: 186.6 mg/dL
- IP [11]: 7 mg/dL
- LDH [11]: 196.8 IU/L
- Na [11]: 141.6 meq/L
- PL [11]: 156.8 mg/dL
- RALB [11]: 3.3 g/dL
- TBIL [11]: 0.2 mg/dL
- TC [11]: 77.8 mg/dL
- TG [11]: 107.6 mg/dL
- TP [11]: 5.6 g/dL
- gamma-GTP [11]: 0.4 IU/L
- TERMINAL_BW [12]: 295.1 g
- TERMINAL_BW [13]: 341.6 g
- Bas [14]: 0%
- Eos [14]: 1.4%
- Fbg [14]: 278.8 mg/dL
- Lym [14]: 64%
- MCH [14]: 21.5 pg
- MCHC [14]: 34%
- Mono [14]: 4.4%
- Neu [14]: 29%
- Plat [14]: 157.6 x10_4/uL
- RBC [14]: 593.2 x10_4/ul
- Ret [14]: 12%
- WBC [14]: 192.8 x10_2/uL
- Bas [15]: 0%
- Eos [15]: 1%
- Fbg [15]: 282.4 mg/dL
- Lym [15]: 61.6%
- MCH [15]: 20.3 pg
- MCHC [15]: 32.7%
- Neu [15]: 33%
- Plat [15]: 164.9 x10_4/uL
- RBC [15]: 584.4 x10_4/ul
- WBC [15]: 199.6 x10_2/uL
- KIDNEY_L [13]: 1.3 g
- KIDNEY_R [13]: 1.3 g
- KIDNEY_TOTAL [13]: 2.6 g
- LIVER [12]: 13 g
- ALP [16]: 513.4 IU/L
- ALT [16]: 26.4 IU/L
- AST [16]: 60.4 IU/L
- CRE [16]: 0.4 mg/dL
- GLC [16]: 191.8 mg/dL
- IP [16]: 7.6 mg/dL
- K [16]: 3.9 meq/L
- LDH [16]: 213 IU/L
- PL [16]: 162.6 mg/dL
- RALB [16]: 3 g/dL
- TBIL [16]: 0.1 mg/dL
- TC [16]: 78.4 mg/dL
- TG [16]: 132.2 mg/dL
- TP [16]: 5.4 g/dL
- gamma-GTP [16]: 0.8 IU/L
- ALP [17]: 538.6 IU/L
- ALT [17]: 25.6 IU/L
- AST [17]: 55.2 IU/L
- CRE [17]: 0.4 mg/dL
- Cl [17]: 104.8 meq/L
- DBIL [17]: 0.07 mg/dL
- GLC [17]: 191.4 mg/dL
- IP [17]: 7.1 mg/dL
- K [17]: 3.9 meq/L
- LDH [17]: 226 IU/L
- Na [17]: 140.8 meq/L
- PL [17]: 146 mg/dL
- RALB [17]: 2.7 g/dL
- TBIL [17]: 0.1 mg/dL
- TC [17]: 68.2 mg/dL
- TG [17]: 123.2 mg/dL
- TP [17]: 5.3 g/dL
- gamma-GTP [17]: 0.8 IU/L
